# Test results from US20250136559A1, “SMO MODULATOR COMPOUNDS” (OMASS THERAPEUTICS LIMITED, priority 2022, published 2025).
# Tests used:
# Type in all cases: cell-based
# human SMO W535L = biological target: T1, human SMO W535L (Homo sapiens, UniProt Q99835, W535L); assay: Human assay: Gli1 qPCR in MEF SMO-/- cells BacMam-transduced with hSMO W535L variant; details: mSHh-treated, 24 hours; for IC50: Gli1 inhibition by qPCR, read-out: Human W535L pIC50 (converted); for Human W535L % Inh: percentage Gli1 inhibition
# T1 construct: expressed in transfected cells; host or cells: SMO knock-out mouse embryonic fibroblasts (MEF SMO-/-), BacMam transduction
# Protocol: (§1) Cell culture. All materials were purchased from Sigma-Aldrich, unless otherwise stated. SMO knock-out mouse embryonic fibroblasts (MEF^SMO−/−) were maintained in Dulbecco's modified Eagle's medium (DMEM)/high-glucose medium supplemented with 10% foetal bovine serum (FBS, Invitrogen), 50 U/mL penicillin and 5 mg/mL streptomycin (supplied as a mixture), 0.1 mMMEM Non-Essential Amino Acids (supplied as 100× solution, ThermoFisher) and 1 mM sodium pyruvate at 37° C. in a humidified 95% air/5% CO2 atmosphere.
# (§2) BacMam transduction and compound treatment. MEF^SMO−/− cells were transduced with BacMam virus (MOI 1:10 in the presence of 4.2 mM valproic acid) containing either the hSMO WT or desired receptor variant sequence. Transduced cells were seeded at 6000 cells per well in a Poly-D-Lysine coated 384-well plate (Greiner) before the spent culture medium was removed on the following day and replaced with assay medium (OptiMEM (Gibco) supplemented with 50 U/mL penicillin and 5 mg/mL streptomycin (supplied as a mixture), 0.1 mMMEM Non-Essential Amino Acids (supplied as 100× solution, ThermoFisher), 1 mM sodium pyruvate and 10 mM HEPES) containing test compounds at 2.5× final assay concentrations. After 1 hour incubation, cells were treated with assay medium containing mSHh prepared at 2.5× of final assay concentrations specified in the text and incubated for a further 24 hours at 37° C. in a humidified 95% air/5% ° C.2 atmosphere prior to qPCR analysis.
# (§3) Cell lysis and one-step qPCR. The Cells-to-CT™ 1-Step TaqMan® Kit was used in conjunction with TaqMan primer-probe assays for the detection of Gill (FAM, Mm00494654_m1) and Gusb (VIC, Mm01197698_m1) genes (all purchased from Life Technologies). Following 24 hours cell treatment, spent medium was removed and cells were washed with PBS before the application of lysis and stop solution as per manufacturer's instructions. The qPCR reactions were run in a 384-well PCR plate using master mix prepared according to manufacturer's instructions and cell lysate samples from treatment wells. Real-time PCR amplification was detected using the Bio-Rad CFX384 Touch PCR system. Four experimental replicates (two cell replicates and two qPCR replicates) were performed for each compound concentration tested. Real-time data were analysed using the CFX Maestro software (Bio-Rad) and obtained expression values were converted to percentage Gill inhibition by normalising to the average Gill expression of mSHh-treated control samples
# human SMO D473H = biological target: T2, human SMO D473H (Homo sapiens, UniProt Q99835, D473H); assay: Human assay: Gli1 qPCR in MEF SMO-/- cells BacMam-transduced with hSMO D473H variant; details: mSHh-treated, 24 hours; for IC50: Gli1 inhibition by qPCR, read-out: Human D473H pIC50 (converted); for Human D473H % Inh: percentage Gli1 inhibition
# T2 construct: expressed in transfected cells; host or cells: SMO knock-out mouse embryonic fibroblasts (MEF SMO-/-), BacMam transduction
# Protocol: Cell culture. All materials were purchased from Sigma-Aldrich, unless otherwise stated.
# as §2, with “concentrations.” for “concentrations. After 1 hour incubation, cells were treated with assay medium containing mSHh prepared at 2.5× of final assay concentrations specified in the text and incubated for a further 24 hours at 37° C. in a humidified 95% air/5% ° C.2 atmosphere prior to qPCR analysis.”
# as §3
# mouse SMO^WT = biological target: T3, mouse SMO^WT (Mus musculus, UniProt P56726); assay: Mouse assay: Gli1 qPCR in MEF cells stably expressing mouse SMO WT; details: mSHh-treated, 24 hours; for IC50: Gli1 inhibition by qPCR, read-out: Mouse WT pIC50 (converted); for Mouse WT % Inh: percentage Gli1 inhibition
# T3 construct: expressed in transfected cells
# In short: (§4)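 MEFs stably expressing the SMO variant pre-treated with compound 1 h, then stimulated with mSHh and incubated 24 h at 37 °C. Gli1 mRNA quantified by one-step TaqMan qPCR with Gusb reference, four replicates per concentration; expressed as % Gli1 inhibition relative to mSHh-treated controls.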
# mouse SMO^W535L = biological target: T4, mouse SMO^W535L (Mus musculus, UniProt P56726, W539L); assay: Mouse assay: Gli1 qPCR in MEF cells stably expressing mouse SMO W535L; details: mSHh-treated, 24 hours; for IC50: Gli1 inhibition by qPCR, read-out: Mouse W535L pIC50 (converted); for Mouse W535L % Inh: percentage Gli1 inhibition
# T4 construct: expressed in transfected cells
# In short: as §4
# hSMO WT = biological target: T5, hSMO WT (Homo sapiens, UniProt Q99835); assay: Human assay: Gli1 qPCR in MEF SMO-/- cells BacMam-transduced with hSMO WT; details: mSHh-treated, 24 hours; for IC50: Gli1 inhibition by qPCR, read-out: Human WT pIC50 (converted); for Human WT % Inh: percentage Gli1 inhibition
# T5 construct: expressed in transfected cells; host or cells: SMO knock-out mouse embryonic fibroblasts (MEF SMO-/-), BacMam transduction
# Protocol: as §1, §2, §3
# mouse SMO^D473H = biological target: T6, mouse SMO^D473H (Mus musculus, UniProt P56726, D477H); assay: Mouse assay: Gli1 qPCR in MEF cells stably expressing mouse SMO D473H; details: mSHh-treated, 24 hours; for IC50: Gli1 inhibition by qPCR, read-out: Mouse D473H pIC50 (converted); for Mouse D473H % Inh: percentage Gli1 inhibition
# T6 construct: expressed in transfected cells
# In short: as §4
# T3 sequence (P56726 33-793): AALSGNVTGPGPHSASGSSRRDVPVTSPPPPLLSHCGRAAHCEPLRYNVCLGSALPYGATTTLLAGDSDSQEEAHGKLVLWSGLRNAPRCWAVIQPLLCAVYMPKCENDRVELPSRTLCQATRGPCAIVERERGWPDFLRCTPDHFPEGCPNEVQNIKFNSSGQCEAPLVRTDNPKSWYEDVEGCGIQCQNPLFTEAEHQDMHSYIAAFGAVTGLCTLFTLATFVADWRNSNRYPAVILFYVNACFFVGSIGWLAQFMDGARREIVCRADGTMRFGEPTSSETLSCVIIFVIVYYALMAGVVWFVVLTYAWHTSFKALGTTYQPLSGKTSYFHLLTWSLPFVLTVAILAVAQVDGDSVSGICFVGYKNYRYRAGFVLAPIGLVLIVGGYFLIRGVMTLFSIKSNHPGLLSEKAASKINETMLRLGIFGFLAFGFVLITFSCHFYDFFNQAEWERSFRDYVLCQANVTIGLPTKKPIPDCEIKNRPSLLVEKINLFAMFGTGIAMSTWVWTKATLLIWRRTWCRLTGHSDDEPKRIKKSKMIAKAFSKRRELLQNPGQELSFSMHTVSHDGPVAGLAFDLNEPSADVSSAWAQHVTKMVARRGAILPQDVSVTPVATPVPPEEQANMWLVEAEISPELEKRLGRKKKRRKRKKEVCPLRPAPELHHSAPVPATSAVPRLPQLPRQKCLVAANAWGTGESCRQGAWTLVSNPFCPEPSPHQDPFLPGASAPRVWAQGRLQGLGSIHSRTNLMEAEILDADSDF
# T5 sequence (Q99835 28-787): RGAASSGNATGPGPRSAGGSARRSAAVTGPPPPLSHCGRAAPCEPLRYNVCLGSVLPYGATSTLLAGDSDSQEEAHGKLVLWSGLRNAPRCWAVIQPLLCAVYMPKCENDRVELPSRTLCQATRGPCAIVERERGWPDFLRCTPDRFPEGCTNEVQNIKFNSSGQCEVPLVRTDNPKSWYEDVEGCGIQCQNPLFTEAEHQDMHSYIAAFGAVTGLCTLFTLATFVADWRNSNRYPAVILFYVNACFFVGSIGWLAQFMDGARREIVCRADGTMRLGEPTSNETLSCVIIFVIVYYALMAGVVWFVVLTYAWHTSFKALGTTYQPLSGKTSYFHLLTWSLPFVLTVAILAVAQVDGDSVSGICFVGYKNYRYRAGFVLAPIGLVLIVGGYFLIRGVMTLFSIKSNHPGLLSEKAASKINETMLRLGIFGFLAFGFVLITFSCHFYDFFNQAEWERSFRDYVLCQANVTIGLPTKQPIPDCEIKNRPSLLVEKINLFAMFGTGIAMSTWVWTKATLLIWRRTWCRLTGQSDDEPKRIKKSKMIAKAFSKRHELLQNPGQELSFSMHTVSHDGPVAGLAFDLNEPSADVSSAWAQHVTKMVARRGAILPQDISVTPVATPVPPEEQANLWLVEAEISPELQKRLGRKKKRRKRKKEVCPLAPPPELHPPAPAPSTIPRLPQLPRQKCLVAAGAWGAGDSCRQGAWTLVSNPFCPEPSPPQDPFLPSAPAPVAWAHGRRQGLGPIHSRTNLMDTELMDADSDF
# T6 sequence (P56726 33-793 D477H): as the sequence (P56726 33-793) above, with D445H counted along it
# T1 sequence (Q99835 28-787 W535L): as the sequence (Q99835 28-787) above, with W508L counted along it
# T4 sequence (P56726 33-793 W539L): as the sequence (P56726 33-793) above, with W507L counted along it
# T2 sequence (Q99835 28-787 D473H): as the sequence (Q99835 28-787) above, with D446H counted along it
Compound,IC50 (human SMO W535L),Human W535L % Inh (human SMO W535L),IC50 (human SMO D473H),Human D473H % Inh (human SMO D473H),IC50 (mouse SMO^WT),Mouse WT % Inh (mouse SMO^WT),IC50 (mouse SMO^W535L),Mouse W535L % Inh (mouse SMO^W535L),IC50 (hSMO WT),Human WT % Inh (hSMO WT),IC50 (mouse SMO^D473H),Mouse D473H % Inh (mouse SMO^D473H)
"O=C(Nc1ccc(-c2nc(Cc3ccc(Br)cc3)n[nH]2)cc1)c1cccc(CN2CCS(=O)(=O)CC2)c1 [Example 3-24, N-[4-[3-[(4-bromophenyl)methy]-1H-1,2,4-triazol-5-yl]phenyl]-3-[(1,1-dioxo-1,4-thiazinan-4-yl)methyl]benzamide]",0.0251 µM,98.5%,0.0251 µM,104%,0.00398 µM,98.8%,0.0398 µM,72.5%,0.00631 µM,94%,0.0501 µM,98.5%
"O=C(Nc1ccc(-c2cc(C3CC3)n[nH]2)cc1)c1cccc(CN2CCS(=O)(=O)CC2)c1 [Example 4-19, N-[4-(5-Cyclopropyl-1H-pyrazol-3-yl)phenyl]-3-[(1,1-dioxo-1,4-thiazinan-4-yl)methyl]benzamide]",0.0126 µM,86.3%,0.1 µM,107.1%,0.00501 µM,96.8%,0.01 µM,59.5%,0.00316 µM,95.4%,0.0158 µM,97.7%
"CC(C)c1noc(-c2ccc(NC(=O)c3cccc(CN4CCS(=O)(=O)CC4)c3)cc2)n1 [Example 4-10, 3-[(1,1-Dioxo-1,4-thiazinan-4-yl)methyl]-N-[4-(3-propan-2-yl-1,2,4-oxadiazol-5-yl)phenyl]benzamide]",0.0126 µM,77.8%,0.0501 µM,100.2%,0.00631 µM,97.8%,0.0631 µM,54.8%,0.00501 µM,88.4%,0.0126 µM,98.1%
"O=C(Nc1ccc(-c2nc(C3CC3)n[nH]2)cc1)c1cccc(CN2CCS(=O)(=O)CC2)c1 [Example 3-3, N-[4-(3-Cyclopropyl-1H-1,2,4-triazol-5-yl)phenyl]-3-[(1,1-dioxo-1,4-thiazinan-4-yl)methyl]benzamide]",0.1 µM,88.4%,1.26 µM,77.2%,0.0158 µM,96.6%,0.158 µM,61.9%,0.0316 µM,85.9%,0.158 µM,89.9%
"Cc1oc(-c2ccc(NC(=O)c3cccc(CN4CCS(=O)(=O)CC4)c3)cc2)nc1C1CC1 [Example 4-2, N-[4-(4-Cyclopropyl-5-methyl-1,3-oxazol-2-yl)phenyl]-3-[(1,1-dioxo-1,4-thiazinan-4-yl)methyl]benzamide]",0.0251 µM,104.6%,0.0316 µM,104.2%,0.000631 µM,97.5%,0.0158 µM,75.3%,0.000501 µM,97.8%,0.00251 µM,98.4%
